Test results as given in publication PMC12481576, “Barbituric Acid Derivatives as Covalent Inhibitors of Leishmania braziliensis Dihydroorotate Dehydrogenase” (Journal of Medicinal Chemistry, 2025).
Where “and” joins values, the source holds several entries; their conditions need not be identical. Identical values can stand only once. Like-named read-outs stand apart in the source and are kept apart here.

How the values were obtained:
LbDHODH = LbDHODH (Leishmania braziliensis, UniProt E9AI53); test: biochemical
LbDHODH, sequence (E9AI53 entry or part of it): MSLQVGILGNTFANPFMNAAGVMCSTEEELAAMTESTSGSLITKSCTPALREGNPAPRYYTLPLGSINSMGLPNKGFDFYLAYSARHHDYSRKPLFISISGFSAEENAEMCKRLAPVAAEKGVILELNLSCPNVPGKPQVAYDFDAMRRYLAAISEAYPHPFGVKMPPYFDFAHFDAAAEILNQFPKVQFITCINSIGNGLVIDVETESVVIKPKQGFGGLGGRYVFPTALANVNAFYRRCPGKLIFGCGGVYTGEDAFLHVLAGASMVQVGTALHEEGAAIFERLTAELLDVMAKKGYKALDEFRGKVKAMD
Summary of the method: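 Covalent inactivation constant kinact/KI came from linear fitting of early kobs values against inhibitor concentration. Activity followed by A610 (DCIP, DHO substrate) every 3 s over 60 s in Tris pH 8.15/KCl/Triton X-100 buffer, in triplicate; single-point 100 μM screen run at 0 h and after 4-h preincubation.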

[1] = tested on: Leishmania braziliensis promastigotes; test: Leishmanicidal activity, promastigote growth (SYBR Green, 72 h); type: cell-based, Leishmania (V.) braziliensis (MHOM/BR/1975/M2904); conditions: L. braziliensis promastigotes, max 200 μM
Summary of the method: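 Cultures at 4 × 10^6 parasites/mL were exposed 72 h to serially decreasing compound levels, top 200 μM, with final DMSO 0.5% and medium-only control.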

[2] = Cell viability / cytotoxicity assay (PrestoBlue, 72 h); type: cell-based; conditions: human; THP-1 cell line, 72 h, max 200 μM; read-out: CC50
Summary of the method: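 Viability was measured with PrestoBlue fluorescence (560/590 nm, 2 h) after 72 h compound exposure at 37 °C. Test concentrations descended from 200 μM. The THP-1 monocytes had first been differentiated with 150 ng/mL phorbol myristate acetate for 48 h, then rested 24 h.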

[3] = Parallel artificial membrane permeability assay (PAMPA); conditions: for LogPe (cm/sec) n1: replicate n1, calculation section; for LogPe (cm/sec) n1 / LogPe (cm/sec) n2: PBS pH 7.4/7.4, 6h; for LogPe (cm/sec) n2: replicate n2, calculation section; for Pe (nm/sec) n=1 / % Recovery n=1: replicate n=1; for Pe (nm/sec) n=1 / Pe (nm/sec) n=2: 10µM (5% DMSO)
Method: Solutions of the compounds were prepared in duplicate by diluting the stock solutions (10 mM) in phosphate buffered saline (PBS) pH 7.4 at a final concentration of 10 μM (5% DMSO). The solutions diluted in PBS pH 7.4 were then added to the donor portion of the plate (300 μL/well), while in the acceptor portion PBS pH 7.4 (200 μL/well) was added. The two portions of the plate were then coupled, and the system was incubated for 6 h at room temperature. Samples of the initial donor solution (T0) were collected at the beginning (T0) and stored at 5 °C. The final concentrations of compounds in the donor, acceptor and T0 wells were quantified by LC-MS/MS.

[4] = for Calculated T-half (min), Average / Calculated T-half (min), n=1 / Calculated T-half (min), n=2: mouse liver microsomes (CD1 male), 0.4 mg/ml protein, test conc 1 µM; for Calculated T-half (min), Average: average of n=1 and n=2; for Calculated T-half (min), n=1: replicate n=1; for Calculated T-half (min), n=2: replicate n=2; for Raw data: analyte peak area, T=0: 0 min; for Raw data: analyte peak area, T=0 / Raw data: analyte peak area, T=5 / Raw data: analyte peak area, T=10 / Raw data: analyte peak area, T=20: raw LC-MS area; for Modified T-half (min), Average: limited to T Half range 3.00 - […]; for Raw data: analyte peak area, T=5: 5 min; for Raw data: analyte peak area, T=10: 10 min; for Raw data: analyte peak area, T=20: 20 min; for mouse liver microsomes T-half: NADPH, 1 μM
[5] = Mouse liver microsome stability in the absence of cofactors (NCF); conditions: 60 min, no cofactor (NCF); for Raw data: analyte peak area, T=60 NCF: mouse liver microsomes, raw LC-MS area; for remaining at 1 h, 1 µM: mouse, microsomes, pH 7.4, % Remaining, T=60 NCF
[6] = 0 h, pH 8.15, read-out: LbDHODH Activity±SD (%)
[7] = 4 h, pH 8.15, read-out: LbDHODH Activity±SD (%)
[8] = IC50 0 h, LbDHODH, without preincubation
[9] = IC50 4 h, LbDHODH, 4-h preincubation
[10] = read-out: Single dose (0h) % activity
[11] = read-out: Single dose (4h) % activity
[12] = PAMPA, pH 7.4, % Recovery n=1, replicate n=1, 10µM, PBS pH 7.4/7.4, 6h at room temperature
[13] = PAMPA, pH 7.4, % Recovery n=2, replicate n=2, 10µM, PBS pH 7.4/7.4, 6h at room temperature
[14] = PAMPA, pH 7.4, Avg % Recovery, average of n=2, 10µM, PBS pH 7.4/7.4, 6h at room temperature
[15] = average of n=2, 10µM, PBS pH 7.4/7.4, 6h at room temperature
[16] = PBS pH 7.4/7.4, 6h at room temperature, LC-MS/MS
[17] = 10µM, PBS pH 7.4/7.4, 6h at room temperature
[18] = replicate n=2, PBS pH 7.4/7.4, 6h at room temperature, LC-MS/MS
[19] = mouse liver microsomes, replicate 1 (left block)
[20] = mouse liver microsomes, replicate 2 (right block)
[21] = mouse liver microsomes, 0.4 mg/ml, 1 µM
[22] = n=1, mouse liver microsomes, n=1
[23] = n=2, mouse liver microsomes, n=2

Work on O=C1NC(=O)C(=Cc2ccc(N3CCOCC3)cc2[N+](=O)[O-])C(=O)N1 [2e, 5-(4-Morpholino-2-nitrobenzylidene)pyrimidine-2,4,6(1H,3H,5H)-trione] yielded an activity at 0.048828 µM (LbDHODH; [6]) of 87 ± 1%, an activity at 0.0976562 µM (LbDHODH; [6]) of 92 ± 1% and an activity at 0.195312 µM (LbDHODH; [6]) of 94 ± 1%. For the same compound, the activity at 0.390625 µM (LbDHODH; [6]) was 79 ± 3%, the activity at 0.78125 µM (LbDHODH; [6]) was 83 ± 4% and the activity at 1.5625 µM (LbDHODH; [6]) was 71 ± 2%. The activity at 3.125 µM (LbDHODH; [6]) was 67 ± 4%, the activity at 6.25 µM (LbDHODH; [6]) was 45 ± 3% and the activity at 12.5 µM (LbDHODH; [6]) was 31 ± 4%. It also gave an activity at 25 µM (LbDHODH; [6]) of 22 ± 1%, an activity at 50 µM (LbDHODH; [6]) of 7 ± 5% and an activity at 100 µM (LbDHODH; [6]) of 10 ± 1%. The activity at 0.048828 µM (LbDHODH; [7]) was 104 ± 4%, the activity at 0.0976562 µM (LbDHODH; [7]) was 107 ± 3% and the activity at 0.195312 µM (LbDHODH; [7]) was 104 ± 3%. It also gave an activity at 0.390625 µM (LbDHODH; [7]) of 106 ± 7%, an activity at 0.78125 µM (LbDHODH; [7]) of 103 ± 1% and an activity at 1.5625 µM (LbDHODH; [7]) of 85 ± 2%. For the same compound, the activity at 3.125 µM (LbDHODH; [7]) was 87 ± 2%, the activity at 6.25 µM (LbDHODH; [7]) was 87 ± 2% and the activity at 12.5 µM (LbDHODH; [7]) was 60 ± 8%. For the same compound, the activity at 25 µM (LbDHODH; [7]) was 67 ± 6%, the activity at 50 µM (LbDHODH; [7]) was 35 ± 4% and the activity at 100 µM (LbDHODH; [7]) was 13 ± 1%. It also gave an IC50 (LbDHODH; [8]) of 5 ± 1 µM, an IC50 (LbDHODH; [9]) of 28 ± 3 µM and an activity at 100 µM (LbDHODH; [10]) of 10 ± 1%. For the same compound, the activity at 100 µM (LbDHODH; [11]) was 7 ± 2%, the inhibition at 100 µM (LbDHODH; read-out: enzyme inhibition) was 90 to 93% and the EC50 ([1]; Leishmania braziliensis) was 17 ± 11 µM. The CC50 at 72 h [2] was > 200 µM, the “Remarks (PAMPA)” value ([3]; 10µM, PBS pH 7.4/7.4, 6h at room temperature, LC-MS/MS) was “No peak detected in acceptor samples” and the recovery at 6 h, 10 µM [3, 12] was 95.1%. For the same compound, the recovery at 6 h, 10 µM [3, 13] was 101%, the recovery at 6 h, 10 µM [3, 14] was 98.2% and the “Avg Log Pe (cm/sec)” value [3, 15] was -9.4 cm/sec and -9.35 cm/sec. For the same compound, the “Avg Pe” value [3, 15] was 0.000444 ×10⁻⁶ cm/s, the “LogPe (cm/sec) n1” value ([3]; 10µM) was -9.34 cm/sec and the “LogPe (cm/sec) n2” value ([3]; 10µM) was -9.37 cm/sec. The “Pe (nm/sec) n=1” value [3, 16] was 0.00461 nm/s, the “% Recovery n=1” value [3, 17] was 95.05% and the “Pe (nm/sec) n=2” value [3, 18] was 0.00426 nm/s. For the same compound, the “Calculated T-half (min), Average” value [4] was 298.4 min, the “Calculated T-half (min), n=1” value [4] was 354.59 min and 354.6 min and the “Calculated T-half (min), n=2” value [4] was 242.28 min and 242.3 min. For the same compound, the “Raw data: analyte peak area, T=0” value [4, 19] was 18699, the “Raw data: analyte peak area, T=0” value [4, 20] was 19500 and the “Modified T-half (min), Average” value [4, 21] was >120.0 min. The “Raw data: analyte peak area, T=5” value [4, 19] was 18869, the “Raw data: analyte peak area, T=5” value [4, 20] was 20171 and the “Raw data: analyte peak area, T=10” value [4, 19] was 18566. The “Raw data: analyte peak area, T=10” value [4, 20] was 21617, the “Raw data: analyte peak area, T=20” value [4, 19] was 17411 and the “Raw data: analyte peak area, T=20” value [4, 20] was 21071. The “mouse liver microsomes T-half” value ([4]; mouse liver microsomes) was >120.0 min, the “Raw data: analyte peak area, T=60 NCF” value ([5]; replicate 1 (left block)) was 19133 and the “Raw data: analyte peak area, T=60 NCF” value ([5]; replicate 2 (right block)) was 18454. For the same compound, the remaining at 1 h, 1 µM [5, 22] was 100% and the remaining at 1 h, 1 µM [5, 23] was 93.1%.
With O=C1NC(=O)C(=Cc2ccc(-c3ccccc3F)[nH]2)C(=O)N1 [2h, 5-((5-(2-Fluorophenyl)-1H-pyrrol-2-yl)methylene)pyrimidine-2,4,6(1H,3H,5H)-trione] the IC50 (LbDHODH; [8]) was > 100 µM, the IC50 (LbDHODH; [9]) was > 100 µM and the “IC50 4 h” value (LbDHODH; LbDHODH, 4-h preincubation) was “inactive”. The activity at 100 µM (LbDHODH; [10]) was 90 ± 10%, the activity at 100 µM (LbDHODH; [11]) was 60 ± 10% and the EC50 [1] was 5 ± 2 µM. The EC50 ([1]; Leishmania braziliensis) was 5.4 to 23 µM, the CC50 at 72 h [2] was > 200 µM and the recovery at 6 h, 10 µM [3, 12] was 38%. For the same compound, the recovery at 6 h, 10 µM [3, 13] was 43.3%, the recovery at 6 h, 10 µM [3, 14] was 40.6% and the Papp ([3]; PAMPA, pH 7.4, permeability, PBS pH 7.4, 10 μM, 6 h) was 1.54 ×10⁻⁶ cm/s. The “Avg Log Pe (cm/sec)” value [3, 15] was -5.8 cm/sec and -5.83 cm/sec, the “Avg Pe” value [3, 15] was 1.54 ×10⁻⁶ cm/s and 1.539 ×10⁻⁶ cm/s and the “LogPe (cm/sec) n1” value ([3]; 10µM) was -5.97 cm/sec. The “LogPe (cm/sec) n2” value ([3]; 10µM) was -5.70 cm/sec, the “Pe (nm/sec) n=1” value [3, 16] was 10.8 nm/s and 10.80 nm/s and the “% Recovery n=1” value [3, 17] was 37.96%. The “Pe (nm/sec) n=2” value [3, 18] was 20.0 nm/s and 19.97 nm/s, the “% Recovery n=2” value ([3]; replicate n=2, 10µM, PBS pH 7.4/7.4, 6h at room temperature) was 43.27% and the “Calculated T-half (min), Average” value [4] was 1.7 min. For the same compound, the “Calculated T-half (min), n=1” value [4] was 1.70 min and 1.7 min, the “Calculated T-half (min), n=2” value [4] was 1.71 min and 1.7 min and the “Modified T-half (min), Average” value [4, 21] was <3.0 min. The “Remarks (mouse microsomal stability study)” value ([4]; mouse liver microsomes, 0.4 mg/ml, 1 µM, NCF = no cofactor control) was “Very fast metabolism; Low NCF”, the “mouse liver microsomes T-half” value ([4]; mouse liver microsomes) was <3.0 min and the remaining at 1 h, 1 µM [5, 22] was 1%. The remaining at 1 h, 1 µM [5, 23] was 1.5%.
